From US20250312352A1, “GLP-1R MODULATING COMPOUNDS” (Gilead Sciences, Inc., priority 2021, published 2025)

molecular target: T1, GLP-1R (Homo sapiens, UniProt P43220); experiment: GLP-1R activation cAMP assay (Assay 1 or Assay 2); type: cell-based; conditions: cAMP increase in CHO cells stably expressing GLP-1R; compounds run on one of the two cAMP assays
T1 construct: host or cells: CHO cells
Procedure, shortened: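 CHO cells stably expressing human GLP-1R were incubated 1 h in HBSS/20 mM HEPES/0.1% BSA, then exposed to 10-point agonist dilutions for 30 min at 37 °C. cAMP increase was measured with an HTRF Gs dynamic kit; EC50 from sigmoidal fit of response versus log concentration.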

T1 sequence (P43220 24-463): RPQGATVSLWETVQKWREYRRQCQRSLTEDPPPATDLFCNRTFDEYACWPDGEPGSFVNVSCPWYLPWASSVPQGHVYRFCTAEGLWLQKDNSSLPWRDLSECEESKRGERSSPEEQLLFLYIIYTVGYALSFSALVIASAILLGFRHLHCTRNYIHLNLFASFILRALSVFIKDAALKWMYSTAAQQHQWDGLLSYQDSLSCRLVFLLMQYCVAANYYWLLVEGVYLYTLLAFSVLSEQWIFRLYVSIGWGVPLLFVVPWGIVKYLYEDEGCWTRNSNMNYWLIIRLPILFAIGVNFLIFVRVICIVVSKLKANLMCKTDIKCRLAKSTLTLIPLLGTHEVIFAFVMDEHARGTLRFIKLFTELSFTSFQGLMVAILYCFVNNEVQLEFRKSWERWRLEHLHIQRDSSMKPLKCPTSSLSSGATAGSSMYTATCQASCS

| SMILES | EC50 [nM] |
| --- | --- |
| O=C(O)c1ccc2nc(Cc3cc(F)c(-c4cccc(OCc5ncc(OCC(F)(F)F)s5)n4)cc3F)n(C[C@@H]3CCO3)c2c1 [Example 57, (S)-2-(2,5-difluoro-4-(6-((5-(2,2,2-trifluoroethoxy)thiazol-2-yl)methoxy)pyridin-2-yl)benzyl)-1-(oxetan-2-ylmethyl)-1H-benzo[d]imidazole-6-carboxylic acid] | 0.73 |
| O=C(O)c1ccc2nc(Cc3cc(F)c(-c4cccc(OCc5ccn(C6CC6)n5)n4)cc3F)n(C[C@@H]3CCO3)c2c1 [Example 6, (S)-2-(4-(6-((1-cyclopropyl-1H-pyrazol-3-yl)methoxy)pyridin-2-yl)-2,5-difluorobenzyl)-1-(oxetan-2-ylmethyl)-1H-benzo[d]imidazole-6-carboxylic acid] | 3.09 |
| Cn1cc(-c2cc(F)c(COc3cccc(-c4cc(F)c(Cc5nc6ccc(C(=O)O)cc6n5C[C@@H]5CCO5)cc4F)n3)s2)cn1 [Example 86, (S)-2-(2,5-difluoro-4-(6-((3-fluoro-5-(1-methyl-1H-pyrazol-4-yl)thiophen-2-yl)methoxy)pyridin-2-yl)benzyl)-1-(oxetan-2-ylmethyl)-1H-benzo[d]imidazole-6-carboxylic acid] | 0.14 |
| CC1(C)COC[C@H]1n1c(Cc2cc(F)c(-c3ccc(F)c(OCc4ncc(C(F)(F)F)s4)n3)cc2F)nc2c(F)cc(C(=O)O)cc21 [Example 252, 2-[[2,5-difluoro-4-[5-fluoro-6-[[5-(trifluoromethyl)thiazol-2-yl]methoxy]-2-pyridyl]phenyl]methyl]-3-[(3S)-4,4-dimethyltetrahydrofuran-3-yl]-7-fluoro-benzimidazole-5-carboxylic acid] | 0.075 |
| N#Cc1sc(COc2cccc(-c3cc(F)c(Cc4nc5ccc(C(=O)O)cc5n4C[C@@H]4CCO4)cc3F)n2)cc1F [Example 205, 2-[[4-[6-[(5-cyano-4-fluoro-2-thienyl)methoxy]-2-pyridyl]-2,5-difluoro-phenyl]methyl]-3-[[(2S)-oxetan-2-yl]methyl]benzimidazole-5-carboxylic acid] | 0.25 |
| Cn1cncc1C#Cc1cnc(COc2cccc(-c3cc(F)c(Cc4nc5ccc(C(=O)O)cc5n4C[C@@H]4CCO4)cc3F)n2)cn1 [Example 156, (S)-2-(2,5-difluoro-4-(6-((5-((1-methyl-1H-imidazol-5-yl)ethynyl)pyrazin-2-yl)methoxy)pyridin-2-yl)benzyl)-1-(oxetan-2-ylmethyl)-1H-benzo[d]imidazole-6-carboxylic acid] | 1.19 |
| COc1cc(C#Cc2cnn(C)c2)ncc1COc1cccc(-c2cc(F)c(Cc3nc4ccc(C(=O)O)cc4n3C[C@@H]3CCO3)cc2F)n1 [Example 145, (S)-2-(2,5-difluoro-4-(6-((4-methoxy-6-((1-methyl-1H-pyrazol-4-yl)ethynyl)pyridin-3-yl)methoxy)pyridin-2-yl)benzyl)-1-(oxetan-2-ylmethyl)-1H-benzo[d]imidazole-6-carboxylic acid] | 0.25 |
| NC(=O)c1cc(COc2cccc(-c3cc(F)c(Cc4nc5ccc(C(=O)O)cc5n4C[C@@H]4CCO4)cc3F)n2)cs1 [Example 129, (S)-2-(4-(6-((5-carbamoylthiophen-3-yl)methoxy)pyridin-2-yl)-2,5-difluorobenzyl)-1-(oxetan-2-ylmethyl)-1H-benzo[d]imidazole-6-carboxylic acid] | 3.17 |

Next, values leading:

| EC50 [nM] | SMILES |
| --- | --- |
| 0.772 | CC1(C)COCC1n1c(Cc2cc(F)c(-c3cccc(OCc4ncc(C(F)F)s4)n3)cc2F)nc2c(F)cc(C(=O)O)cc21 (stereo not drawn) [Example 341, 2-(4-(6-((5-(difluoromethyl)thiazol-2-yl)methoxy)pyridin-2-yl)-2,5-difluorobenzyl)-1-(4,4-dimethyltetrahydrofuran-3-yl)-4-fluoro-1H-benzo[d]imidazole-6-carboxylic acid] |
| 0.367 | CCOc1nnc(COc2cccc(-c3cc(F)c(Cc4nc5ccc(C(=O)O)cc5n4CC4(CF)CC4)cc3F)n2)s1 [Example 266, 2-(4-(6-((5-ethoxy-1,3,4-thiadiazol-2-yl)methoxy)pyridin-2-yl)-2,5-difluorobenzyl)-1-((1-(fluoromethyl)cyclopropyl)methyl)-1H-benzo[d]imidazole-6-carboxylic acid] |
| 0.551 | COc1nnc(COc2nc(-c3cc(F)c(Cc4nc5c(F)cc(C(=O)O)cc5n4CC4(CF)CC4)cc3F)ccc2F)s1 [Example 410, 2-(2,5-difluoro-4-(5-fluoro-6-((5-methoxy-1,3,4-thiadiazol-2-yl)methoxy)pyridin-2-yl)benzyl)-4-fluoro-1-((1-(fluoromethyl)cyclopropyl)methyl)-1H-benzo[d]imidazole-6-carboxylic acid] |
| 0.366 | CC1(C)COC[C@H]1n1c(Cc2cc(F)c(-c3ccc(F)c(OCc4ncc(Cl)s4)n3)cc2F)nc2ccc(C(=O)O)cc21 [Example 255, (S)-2-(4-(6-((5-chlorothiazol-2-yl)methoxy)-5-fluoropyridin-2-yl)-2,5-difluorobenzyl)-1-(4,4-dimethyltetrahydrofuran-3-yl)-1H-benzo[d]imidazole-6-carboxylic acid] |
| 0.451 | O=C(O)c1ccc2nc(Cc3cc(F)c(-c4cccc(OCc5ncc(C#CC6(C(F)F)CC6)s5)n4)cc3F)n(C[C@@H]3CCO3)c2c1 [Example 326, (S)-2-(4-(6-((5-((1-(difluoromethyl)cyclopropyl)ethynyl)thiazol-2-yl)methoxy)pyridin-2-yl)-2,5-difluorobenzyl)-1-(oxetan-2-ylmethyl)-1H-benzo[d]imidazole-6-carboxylic acid] |
| 0.208 | CNC(=O)c1cc(Cl)c(COc2cccc(-c3ccc(Cc4nc5ccc(C(=O)O)cc5n4CC4(CF)CC4)c(F)c3)n2)cn1 [Example 402, 2-(4-(6-((4-chloro-6-(methylcarbamoyl)pyridin-3-yl)methoxy)pyridin-2-yl)-2-fluorobenzyl)-1-((1-(fluoromethyl)cyclopropyl)methyl)-1H-benzo[d]imidazole-6-carboxylic acid] |
| 0.096 | CC1(C)COC[C@H]1n1c(Cc2cc(F)c(-c3cccc(OCc4sc(C#N)cc4F)n3)cc2F)nc2ccc(C(=O)O)cc21 [Example 419, (S)-2-(4-(6-((5-cyano-3-fluorothiophen-2-yl)methoxy)pyridin-2-yl)-2,5-difluorobenzyl)-1-(4,4-dimethyltetrahydrofuran-3-yl)-1H-benzo[d]imidazole-6-carboxylic acid] |
| 0.068 | CC(F)(F)c1cnc(COc2nc(-c3cc(F)c(Cc4nc5c(F)cc(C(=O)O)cc5n4C[C@@H]4CCO4)c(F)c3F)ccc2F)s1 [Example 378, (S)-2-(4-(6-((5-(1,1-difluoroethyl)thiazol-2-yl)methoxy)-5-fluoropyridin-2-yl)-2,3,6-trifluorobenzyl)-4-fluoro-1-(oxetan-2-ylmethyl)-1H-benzo[d]imidazole-6-carboxylic acid] |
| 0.044 | COc1nnc(COc2cccc(-c3cc(F)c(Cc4nc5ccc(C(=O)O)cc5n4[C@@H]4COCC4(C)C)cc3C)n2)s1 [Example 261, (S)-1-(4,4-dimethyltetrahydrofuran-3-yl)-2-(2-fluoro-4-(6-((5-methoxy-1,3,4-thiadiazol-2-yl)methoxy)pyridin-2-yl)-5-methylbenzyl)-1H-benzo[d]imidazole-6-carboxylic acid] |
| 20.8 | Cc1nnc(COc2cccc(-c3cc(F)c(Cc4nc5ccc(C(=O)O)cc5n4[C@H]4COCC4(C)C)c(F)c3F)n2)s1 (single isomer, unassigned) [Example 281B] |
